According to patent US12090149B2, “SMAD3 inhibitors” (Moexa Pharmaceuticals Limited, priority 2018, dated 2024):
Read-outs that look alike come from different tables or passages of the source. Blank lines part the entries; values can stand above or below the molecule they belong to.

Tests used:
Solubility in DMSO = type: physicochemical
[1] = Aqueous solubility assay (shake-flask, LC/MS/MS); type: physicochemical; conditions: for solubility at 24 h: thermodynamic from solid, read-out: Conc. Of Sample (ug/mL), aqueous solubility; for solubility at 24 h / Conc. Of Sample (ug/mL), aqueous solubility: 25° C., SIS3 hydrochloride salt, MO-00005 free base, 24 hours
Procedure: Poorly soluble compounds can dramatically reduce productivity in drug discovery and development. Solubility assays involve assessment of kinetic solubility (from DMSO stock solution) using a shake-flask technique in a plate format and LC/MS/MS analysis.
• Analytical Column: YMC ODS-AM S-3 120A, 3×50 mm column with Guard. • Flow Rate: 500 ul/min • Mobil Phase: Isocratic 50% acetonitrile: 50% 20 mM Ammonium Acetate pH 4. Back Pressure: 1400 psi • Column Temperature: Ambient, • Autosampler Setting: Injection Volume: 5 ul, Loop Volume: 100 ul, Tray Temperature: 4° C. • Needle wash: Vial position 100. Needle wash solution: 50% Methanol water
• Component Mass Molarity • Sodium bicarbonate (mw: 84 g/mol) 0.11628 g 0.0461 M • Sodium carbonate (anhydrous) (mw: 106 g/mol) 0.17127 g 0.0539 M • Tris Buffer pH 7.7 (100 mL) • Add 0.363 g of tris to 30 mL water. Check pH at room temperature the pH should be 7.7 with acetic acid. • Acetate Buffer pH 3.6 (30 mL) • Component Mass Molarity • Sodium Acetate (anhydrous) (mw: 82 g/mol) 0.01188 g 0.0048 M • Acetic Acid (mw: 60.05 g/mol) 0.17145 g 0.0952 M (0.17145 g=[…])
Then run all samples at this dilution. • (xi) Run samples in duplicate and estimate aqueous solubility.
As such, it may be expected that the hydrochloride salt will have better solubility in unbuffered aqueous solutions. There the thermodynamic equilibrium dissolution concentrations of both compounds were determined also in buffered solutions at pH 4, 7.7, and 10.4 in addition to unbuffered water.

CYP2C9 = biological target: T1, CYP2C9 (Homo sapiens, UniProt P11712); experiment: Cytochrome P450 inhibition assay, human liver microsomes, CYP2C9; type: in vitro ADME
T1 construct: CONSTRUCT DETAILS: Microsomes; from tissue; host or cells: human liver microsomes
Excerpt: • SUBSTRATE: Diclofenac

CYP2D6 = biological target: T2, CYP2D6 (Homo sapiens, UniProt P10635); experiment: Cytochrome P450 inhibition assay, human liver microsomes, CYP2D6; type: in vitro ADME
T2 construct: CONSTRUCT DETAILS: Microsomes; from tissue; host or cells: human liver microsomes

B16-F10 syngeneic model = experiment: Subcutaneous B16-F10 syngeneic model, tumor growth; type: in vivo, C57BL/6 mice; conditions: 30 mg/kg q.d. * 3W i.p.
[2] = Aqueous solubility assay (shake-flask, LC/MS/MS); type: physicochemical
CYP3A4 = CYP3A4 (Homo sapiens, UniProt P08684); experiment: Cytochrome P450 inhibition assay, human liver microsomes, CYP3A4; conditions: for inhibition at 10 µM: human
[3] = Day 13, calculated based on tumor volume of Day 8
[4] = Day 15, calculated based on tumor volume of Day 8
[5] = Day 18, calculated based on tumor volume of Day 8

Sequence of CYP3A4 (P08684 whole entry): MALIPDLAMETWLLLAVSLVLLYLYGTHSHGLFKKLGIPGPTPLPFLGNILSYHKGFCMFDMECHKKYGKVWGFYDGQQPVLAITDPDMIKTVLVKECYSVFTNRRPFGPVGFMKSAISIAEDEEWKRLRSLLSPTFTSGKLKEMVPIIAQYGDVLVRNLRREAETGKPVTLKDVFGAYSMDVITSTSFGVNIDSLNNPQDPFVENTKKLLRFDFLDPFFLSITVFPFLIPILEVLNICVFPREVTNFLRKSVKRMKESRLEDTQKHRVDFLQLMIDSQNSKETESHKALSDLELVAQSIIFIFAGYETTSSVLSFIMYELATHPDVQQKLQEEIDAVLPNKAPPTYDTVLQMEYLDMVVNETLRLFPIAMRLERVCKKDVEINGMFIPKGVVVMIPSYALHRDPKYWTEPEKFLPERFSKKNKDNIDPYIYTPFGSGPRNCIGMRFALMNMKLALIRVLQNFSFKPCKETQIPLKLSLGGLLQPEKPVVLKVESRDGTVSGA
T1 sequence (P11712 whole entry): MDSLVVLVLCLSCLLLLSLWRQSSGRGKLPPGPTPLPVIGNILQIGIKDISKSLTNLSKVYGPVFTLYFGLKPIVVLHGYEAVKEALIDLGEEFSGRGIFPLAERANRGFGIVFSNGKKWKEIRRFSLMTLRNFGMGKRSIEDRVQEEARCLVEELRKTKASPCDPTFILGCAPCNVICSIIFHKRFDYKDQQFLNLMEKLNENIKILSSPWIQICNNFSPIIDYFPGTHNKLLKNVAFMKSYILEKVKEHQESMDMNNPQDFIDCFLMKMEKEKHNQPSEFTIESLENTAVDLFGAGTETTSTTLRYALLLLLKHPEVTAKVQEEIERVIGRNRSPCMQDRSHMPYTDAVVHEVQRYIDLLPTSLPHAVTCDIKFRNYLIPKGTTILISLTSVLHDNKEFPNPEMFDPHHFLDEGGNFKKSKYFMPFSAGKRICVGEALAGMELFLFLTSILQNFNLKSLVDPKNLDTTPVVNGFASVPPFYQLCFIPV
T2 sequence (P10635 whole entry): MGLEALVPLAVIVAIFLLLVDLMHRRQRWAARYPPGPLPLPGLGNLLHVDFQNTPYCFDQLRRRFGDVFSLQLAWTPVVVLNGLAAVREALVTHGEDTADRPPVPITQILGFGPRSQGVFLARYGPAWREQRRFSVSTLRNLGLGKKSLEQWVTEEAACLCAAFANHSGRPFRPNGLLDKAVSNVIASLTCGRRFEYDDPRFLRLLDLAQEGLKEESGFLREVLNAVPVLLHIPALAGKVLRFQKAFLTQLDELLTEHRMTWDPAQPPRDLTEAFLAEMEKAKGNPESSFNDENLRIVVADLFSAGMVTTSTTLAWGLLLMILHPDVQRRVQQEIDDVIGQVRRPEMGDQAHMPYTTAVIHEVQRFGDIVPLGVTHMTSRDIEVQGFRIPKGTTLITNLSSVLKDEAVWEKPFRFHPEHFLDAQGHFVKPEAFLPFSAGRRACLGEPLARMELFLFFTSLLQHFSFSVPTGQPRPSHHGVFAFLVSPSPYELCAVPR

soluble in DMSO (Solubility in DMSO): soluble
solubility at 24 h ([1]; aqueous buffer pH 4.03, aqueous buffer, pH 4.03 buffer): 598 µg/mL
solubility at 24 h ([1]; aqueous buffer pH 7.70, pH 7.7, aqueous buffer, pH 7.70 buffer): 269 µg/mL
aqueous solubility relative to the solubility of SIS3 ([1]; pH of 4.0): 35 times
solubility at 24 h ([1]; unbuffered water): 321 µg/mL
inhibition at 10 µM (CYP2C9; probe diclofenac, diclofenac substrate, read-out: CYP2C9 inhibition (HLM, diclofenac substrate) Inhibition (%)): 66.9%
inhibition at 10 µM (CYP2D6; probe dextromethorphan, dextromethorphan substrate, read-out: CYP2D6 inhibition (HLM, dextromethorphan substrate) Inhibition (%)): -2.74%
solubility at 24 h ([2]; aqueous buffer pH 10.63, aqueous buffer, thermodynamic from solid, pH 10.63 buffer, 25° C., 24 hours, SIS3 hydrochloride salt, MO-00005 free base, read-out: Conc. Of Sample (ug/mL), aqueous solubility): 280 µg/mL
aqueous solubility relative to the solubility of SIS3 ([2]; pH 10.63): 117 times
inhibition at 10 µM (CYP3A4; probe midazolam): 41.3%
inhibition at 10 µM (CYP3A4; probe testosterone): 2.22%
SMILES: COc1cc2c(cc1OC)CN(C(=O)/C=C/c1c(-c3ccccc3)nc3ccccn13)CC2 [Compound 8, (E)-1-(6,7-dimethoxy-3,4-dihydroisoquinolin-2(1H)-yl)-3-(2-phenylimidazo[1,2-a]pyridin-3-yl)prop-2-en-1-one]
Tumor growth inhibition (%) TGI (B16-F10 syngeneic model; [3]): 39%
Tumor growth inhibition (%) TGI (B16-F10 syngeneic model; [4]): 26%
Tumor growth inhibition (%) TGI (B16-F10 syngeneic model; [5]): 18%

SMILES: COc1cc2c(cc1OC)CN(C(=O)/C=C/c1c(-c3ccccc3)n(C)c3ncccc13)CC2.Cl [SIS3, reference compound]
Conc. Of Sample (ug/mL), aqueous solubility ([1]; pH 4.03 buffer): 17.2 µg/mL
Conc. Of Sample (ug/mL), aqueous solubility ([1]; pH 7.70 buffer): 7.0 µg/mL
Conc. Of Sample (ug/mL), aqueous solubility ([1]; unbuffered water): 17.7 µg/mL
CYP2C9 inhibition (HLM, diclofenac substrate) Inhibition (%) (CYP2C9; 10 uM): 79.7661%
CYP2D6 inhibition (HLM, dextromethorphan substrate) Inhibition (%) (CYP2D6; 10 uM): 19.1641%
Tumor growth inhibition (%) TGI (B16-F10 syngeneic model; [3]): 39%
Tumor growth inhibition (%) TGI (B16-F10 syngeneic model; [4]): 27%
Tumor growth inhibition (%) TGI (B16-F10 syngeneic model; [5]): 25%
Conc. Of Sample (ug/mL), aqueous solubility ([2]; pH 10.63 buffer, 25° C., 24 hours, SIS3 hydrochloride salt, MO-00005 free base): 2.4 µg/mL
CYP3A inhibition (HLM, midazolam substrate) Inhibition (%) (CYP3A4; 10 uM, midazolam substrate): 20.5499%
CYP3A inhibition (HLM, testosterone substrate) Inhibition (%) (CYP3A4; 10 uM, testosterone substrate): 9.294%
